According to patent publication US20230085307A1, “PYRIDAZINONE COMPOUND AND HERBICIDE” (NISSAN CHEMICAL CORPORATION, priority 2019, published 2023):

Columns and labels:
southern crabgrass = experiment: Test Example 4: herbicidal effect by soil treatment (Table 19, symbol F); assay type: in vivo, southern crabgrass (Digitaria ciliaris); settings: amount of applied herbicide 320 g/ha
Procedure, shortened: (§1)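 Three weeks of greenhouse growth at 25° C. to 30° C. followed a uniform surface spray of water-diluted emulsion at a predetermined herbicide amount. Seeds had been sown beforehand under about 1.5 cm of sterilized diluvial soil. Grading followed criteria set out in an earlier test.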

persian speedwell = experiment: Test Example 5: herbicidal effect by foliage application, plastic box (Table 20, symbol R); assay type: in vivo, Persian speedwell (Veronica persica); settings: foliage application, 320 g/ha; for herbicidal effect on persian speedwell (R) / R: persian speedwell, herbicidal effect grade: three weeks after application; for R (persian speedwell) herbicidal effect grade: evaluated 3 weeks after application
Procedure, shortened: (§2)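 Plants sown in sterilized diluvial soil and grown 14 days in a greenhouse at 25° C to 30° C, then sprayed on the foliage with the compound's emulsion diluted in water to a predetermined herbicide amount. Injury to weeds and crops scored three weeks after application on a visual rating scale.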

Chinese sprangletop = experiment: Test Example 3: herbicidal effect by foliage application, Wagner pot (Table 18, symbol D); assay type: in vivo, chinese sprangletop (Leptochloa chinensis)
Procedure, shortened: (§3)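 Plants were sown in alluvial soil held under 0.1–0.5 cm standing water and grown 14 days in a greenhouse at 25–30 °C. An emulsifiable formulation, water-diluted to the set dose, was then sprayed onto the foliage, and effects were scored three weeks later using previously defined criteria.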

rice flat sedge = experiment: Test Example 3: herbicidal effect by foliage application, Wagner pot (Table 18, symbol E); assay type: in vivo, rice flat sedge (Cyperus iria)
Procedure, shortened: as §3

late watergrass = experiment: Test Example 2: herbicidal activity, application during weed generation under submerged conditions (Table 17, symbol A); assay type: in vivo, late watergrass (Echinochloa oryzicola); settings: for herbicidal effect rating, A: late watergrass: AAH 320 g/ha, application during weed generation, submerged conditions; for herbicidal effect grade, A: late watergrass: application during weed generation under submerged conditions, amount of applied herbicide 320 g/ha
Procedure, shortened: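 Steps: fill Wagner pots with alluvial soil; add water to give 4 cm depth; sow the species mixed; grow under glass at 25–30° C.; at 1–2 leaves apply water-diluted emulsion formulation to the water surface at a fixed herbicide amount; score after 3 weeks.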

windgrass = experiment: Test Example 4: herbicidal effect by soil treatment (Table 19, symbol L); assay type: in vivo, windgrass (Apera spica-venti); settings: amount of applied herbicide 320 g/ha
Procedure, shortened: as §1

oval-leafed pondweed = experiment: Test Example 1: herbicidal activity, application before weed generation under submerged conditions (Table 16, symbol C); assay type: in vivo, oval-leafed pondweed (Monochoria vaginalis); settings: amount of applied herbicide 320 g/ha
Procedure, shortened: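 Submerged Wagner pots (alluvial soil, 4 cm water) sown with weed seeds and planted with 2.5-leaf rice seedlings; emulsifiable concentrate diluted in water applied to water surface on sowing day. Held in greenhouse at 25-30 °C; injury scored 0-5 by herbicidal rate after three weeks.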

false cleavers [1] = experiment: Test Example 5: herbicidal effect by foliage application, plastic box (Table 20, symbol Q); assay type: in vivo, false cleavers (Galium spurium); settings: foliage application, 320 g/ha, three weeks after application
Procedure, shortened: as §2

chickweed = experiment: Test Example 4: herbicidal effect by soil treatment (Table 19, symbol P); assay type: in vivo, common chickweed (Stellaria media); settings: amount of applied herbicide 320 g/ha
Procedure, shortened: as §1

barnyard grass [2] = experiment: Test Example 3: herbicidal effect by foliage application, Wagner pot (Table 18, symbol H); assay type: in vivo, barnyard grass (Echinochloa crus-galli)
Procedure, shortened: as §3

barnyard grass [3] = experiment: Test Example 4: herbicidal effect by soil treatment (Table 19, symbol H); assay type: in vivo, barnyard grass (Echinochloa crus-galli); settings: amount of applied herbicide 320 g/ha
Procedure, shortened: as §1

lambsquarters = experiment: Test Example 5: herbicidal effect by foliage application, plastic box (Table 20, symbol O); assay type: in vivo, lambsquarters (Chenopodium album); settings: foliage application, 320 g/ha; for herbicidal effect on lambsquarters (O) / O: lambsquarters, herbicidal effect grade: three weeks after application; for O (lambsquarters) herbicidal effect grade: evaluated 3 weeks after application
Procedure, shortened: as §2

redroot pigweed = experiment: Test Example 5: herbicidal effect by foliage application, plastic box (Table 20, symbol N); assay type: in vivo, redroot pigweed (Amaranthus retroflexus); settings: foliage application, 320 g/ha; for N: redroot pigweed, herbicidal effect grade: three weeks after application; for N (redroot pigweed) herbicidal effect grade: evaluated 3 weeks after application
Procedure, shortened: as §2

false cleavers [4] = experiment: Test Example 4: herbicidal effect by soil treatment (Table 19, symbol Q); assay type: in vivo, false cleavers (Galium spurium); settings: amount of applied herbicide 320 g/ha
Procedure, shortened: as §1

[5] = amount of applied herbicide 320 g/ha

| Compound | F: southern crabgrass, herbicidal effect grade (southern crabgrass) | herbicidal effect on persian speedwell (R) (persian speedwell) | Herbicidal effect on D (Chinese sprangletop), foliage application (Chinese sprangletop; [5]) | Herbicidal effect on E (rice flat sedge), foliage application (rice flat sedge; [5]) | herbicidal effect rating, A: late watergrass (late watergrass) | L: windgrass, herbicidal effect grade (windgrass) | Herbicidal effect, C: oval-leafed pondweed (oval-leafed pondweed) | herbicidal effect on false cleavers (Q) (false cleavers [1]) | P: chickweed, herbicidal effect grade (chickweed) | Herbicidal effect on H (barnyard grass), foliage application (barnyard grass [2]; [5]) | H: barnyard grass, herbicidal effect grade (barnyard grass [3]) | herbicidal effect on lambsquarters (O) (lambsquarters) | R: persian speedwell, herbicidal effect grade (persian speedwell) | N: redroot pigweed, herbicidal effect grade (redroot pigweed) | Q: false cleavers, herbicidal effect grade (false cleavers [1]) | O: lambsquarters, herbicidal effect grade (lambsquarters) | R (persian speedwell) herbicidal effect grade (persian speedwell) | herbicidal effect grade, A: late watergrass (late watergrass) | N (redroot pigweed) herbicidal effect grade (redroot pigweed) | Q: false cleavers, herbicidal effect grade (false cleavers [4]) | further results |
| --- | --- | --- | --- | --- | --- | --- | --- | --- | --- | --- | --- | --- | --- | --- | --- | --- | --- | --- | --- | --- | --- |
| CCCC(=O)Oc1c(C)nn(C)c(=O)c1-c1c(-c2ccc3c(c2)OCCO3)oc2ccc(C)cc12 [9-013] | 4 (Herbicidal rate of 70% or more and less than 90%) | 5 (Herbicidal rate of 90% or more (almost completely withered)) | 0 (Herbicidal rate of 5% or less (almost no effect)) | 3 (Herbicidal rate of 40% or more and less than 70%) | 0 (Herbicidal rate of 5% or less (almost no effect)) | 0 (Herbicidal rate of 5% or less (almost no effect)) | 4 (Herbicidal rate of 70% or more and less than 90%) | 0 (Herbicidal rate of 5% or less (almost no effect)) | 0 (Herbicidal rate of 5% or less (almost no effect)) | 1 (Herbicidal rate of 5% or more and less than 20%) | 1 (Herbicidal rate of 5% or more and less than 20%) | 3 (Herbicidal rate of 40% or more and less than 70%) | – | – | – | – | – | – | – | – | – |
| COc1ccccc1-c1sc2cc(OC3CCCC3)ccc2c1-c1c(O)c(C)nn(C)c1=O [3-109] | 2 (Herbicidal rate of 20% or more and less than 40%) | – | – | – | 0 (Herbicidal rate of 5% or less (almost no effect)) | 0 (Herbicidal rate of 5% or less (almost no effect)) | 5 (Herbicidal rate of 90% or more (almost completely withered)) | – | 1 (Herbicidal rate of 5% or more and less than 20%) | – | 1 (Herbicidal rate of 5% or more and less than 20%) | – | 5 (Herbicidal rate of 90% or more (almost completely withered)) | 5 (Herbicidal rate of 90% or more (almost completely withered)) | 1 (Herbicidal rate of 5% or more and less than 20%) | 3 (Herbicidal rate of 40% or more and less than 70%) | – | – | – | – | herbicidal effect on Chinese sprangletop (D) (Chinese sprangletop; 320 g/ha): 4 (Herbicidal rate of 70% or more and less than 90%); herbicidal effect on rice flat sedge (E) (rice flat sedge; 320 g/ha): 4 (Herbicidal rate of 70% or more and less than 90%); herbicidal effect on barnyard grass (H) (barnyard grass [2]; 320 g/ha): 3 (Herbicidal rate of 40% or more and less than 70%) |
| Cc1nn(C)c(=O)c(-c2c(-c3ccc(Cl)cc3)sc3cccc(F)c23)c1O [11-001] | 0 (Herbicidal rate of 5% or less (almost no effect)) | – | 3 (Herbicidal rate of 40% or more and less than 70%) | 5 (Herbicidal rate of 90% or more (almost completely withered)) | – | 0 (Herbicidal rate of 5% or less (almost no effect)) | 5 (Herbicidal rate of 90% or more (almost completely withered)) | – | 4 (Herbicidal rate of 70% or more and less than 90%) | 3 (Herbicidal rate of 40% or more and less than 70%) | 0 (Herbicidal rate of 5% or less (almost no effect)) | – | – | – | – | – | 5 (Herbicidal rate of 90% or more (almost completely withered)) | 2 (Herbicidal rate of 20% or more and less than 40%) | 5 (Herbicidal rate of 90% or more (almost completely withered)) | 0 (Herbicidal rate of 5% or less (almost no effect)) | O (lambsquarters) herbicidal effect grade (lambsquarters): 5 (Herbicidal rate of 90% or more (almost completely withered)) |
| CSc1ccc(-c2oc3ccc(C)cc3c2-c2c(O)c(C)nn(C)c2=O)cc1 [9-055] | 0 (Herbicidal rate of 5% or less (almost no effect)) | – | 5 (Herbicidal rate of 90% or more (almost completely withered)) | 5 (Herbicidal rate of 90% or more (almost completely withered)) | – | 0 (Herbicidal rate of 5% or less (almost no effect)) | 4 (Herbicidal rate of 70% or more and less than 90%) | – | 5 (Herbicidal rate of 90% or more (almost completely withered)) | 5 (Herbicidal rate of 90% or more (almost completely withered)) | 3 (Herbicidal rate of 40% or more and less than 70%) | – | – | – | – | – | 5 (Herbicidal rate of 90% or more (almost completely withered)) | 4 (Herbicidal rate of 70% or more and less than 90%) | 5 (Herbicidal rate of 90% or more (almost completely withered)) | 0 (Herbicidal rate of 5% or less (almost no effect)) | O (lambsquarters) herbicidal effect grade (lambsquarters): 5 (Herbicidal rate of 90% or more (almost completely withered)) |
| Cc1ccc2oc(-c3ccc4c(c3)OCCO4)c(-c3c(O)c(C)nn(C)c3=O)c2c1 [9-012] | 2 (Herbicidal rate of 20% or more and less than 40%) | 5 (Herbicidal rate of 90% or more (almost completely withered)) | 0 (Herbicidal rate of 5% or less (almost no effect)) | 5 (Herbicidal rate of 90% or more (almost completely withered)) | 1 (Herbicidal rate of 5% or more and less than 20%) | 0 (Herbicidal rate of 5% or less (almost no effect)) | 5 (Herbicidal rate of 90% or more (almost completely withered)) | 3 (Herbicidal rate of 40% or more and less than 70%) | 3 (Herbicidal rate of 40% or more and less than 70%) | 4 (Herbicidal rate of 70% or more and less than 90%) | 2 (Herbicidal rate of 20% or more and less than 40%) | 3 (Herbicidal rate of 40% or more and less than 70%) | – | – | – | – | – | – | – | – | – |
| CCCC(=O)Oc1c(C)nn(C)c(=O)c1-c1c(-c2ccc(OC(C)C)cc2)sc2cc(F)ccc12 [3-020] | – | – | – | – | 1 (Herbicidal rate of 5% or more and less than 20%) | – | 2 (Herbicidal rate of 20% or more and less than 40%) | – | – | – | – | – | 5 (Herbicidal rate of 90% or more (almost completely withered)) | 4 (Herbicidal rate of 70% or more and less than 90%) | 4 (Herbicidal rate of 70% or more and less than 90%) | 3 (Herbicidal rate of 40% or more and less than 70%) | – | – | – | – | herbicidal effect, F: southern crabgrass (southern crabgrass): 0 (Herbicidal rate of 5% or less (almost no effect)); herbicidal effect on D: Chinese sprangletop (Chinese sprangletop; [5]): 3 (Herbicidal rate of 40% or more and less than 70%); herbicidal effect on E: rice flat sedge (rice flat sedge; [5]): 5 (Herbicidal rate of 90% or more (almost completely withered)); herbicidal effect, L: windgrass (windgrass): 0 (Herbicidal rate of 5% or less (almost no effect)); herbicidal effect, P: chickweed (chickweed): 0 (Herbicidal rate of 5% or less (almost no effect)); herbicidal effect on H: barnyard grass (barnyard grass [2]; [5]): 4 (Herbicidal rate of 70% or more and less than 90%); herbicidal effect, H: barnyard grass (barnyard grass [3]): 0 (Herbicidal rate of 5% or less (almost no effect)) |
